Here are results for 23 molecules from patent US10640511B2, “Hepatitis B antiviral agents” (ENANTA PHARMACEUTICALS, INC., priority 2016, dated 2020).

In one data set the test system is HBV. Kind of data set: HepAD38 antiviral assay: reduction of viral product accumulation (virion DNA by qPCR; HBsAg/HBeAg ELISA). The class given is cell-based, hepatitis B virus (HBV). The note with it: Hepatitis B virus, 120 h; HepAD38 cells; 50% reduction of viral product accumulation relative to no drug controls; harvest five days after compound addition. How it is done:
Methods: HepAD38 cells are maintained as previously reported (Ladner et al, Antimicrob. Agents Chemother. 1997, […], 1715). Briefly, cells are passaged upon attaining confluency in DMEM/F12 media in the presence of 10% FBS, Penn/Strep, 250 μg/mL G418, and 1 μg/ml tetracycline. Novel compounds are screened by first washing cells three times with PBS to remove tetracycline, and plating in 96 well plates at 35,000 cells/well. Compounds dissolved in DMSO are then diluted 1:200 into wells containing cells. Five days after compound addition, material is harvested for analysis. For an extended 8 day analysis, cells are plated and treated as described above, but media and compound are refreshed on d2 and d5 post initial treatment.
On harvest day, virion DNA is obtained by lysing with Sidestep Lysis and Stabilization Buffer and then quantified via quantitative real time PCR. Commercially available ELISA kits are used to quantitate the viral proteins HBsAg (Alpco) or HbeAg (US Biological) by following the manufacturer's recommended protocol after diluting samples to match the linear range of their respective assays. Irrespective of readout, compound concentrations that reduce viral product accumulation in the cell lysates or supernatants by 50% relative to no drug controls (EC50) are reported; EC50 ranges are as follows: A<0.1 μM; B 0.1-1 μM; C>1 μM.

A short description of data set [1]: Compound toxicity, ATPLite total ATP levels. The data set is classed as cell-based. Conditions: human, HepG2 cells, 50% reduction of total ATP levels (ATPLite) three days after compound addition. The protocol:
Compound toxicity is evaluated by seeding cells at 15,000 cells/well and treating with compound as described above.
On the technique in general: ATP-based viability assays read luminescence as a measure of living cells.

`Cn1ccc(C2=C3C[C@H](NS(=O)(=O)C4CC4)CN3C(c3nccs3)=N[C@@]2(C)c2ccc(F)cc2)n1` [Example 5]: the concentration for a half-maximal effect (EC50) (commonly the concentration at which the effect is half-maximal) in the data set with HBV was less than 0.1 µM.
Molecule `Cn1cc(C2=C3C[C@H](NS(=O)(=O)C4CC4)CN3C(c3nccs3)=N[C@H]2c2ccc(F)cc2Cl)cn1` [Example 19] showed an EC50 in the data set with HBV of less than 0.1 µM.
The same measure, in the same setting: the value for `O=S(=O)(N[C@H]1CC2=C(c3ncco3)[C@H](c3ccc(F)cc3Cl)N=C(c3nccs3)N2C1)C1CC1` [Example 15] was less than 0.1 µM; that for `Cn1ccc(C2=C3C[C@H](NS(=O)(=O)c4ccccc4)CN3C(c3nccs3)=N[C@H]2c2ccc(F)cc2Cl)n1` [Example 14] was less than 0.1 µM.
On to `Cc1cnc(C2=C3C[C@H](NS(=O)(=O)C4CC4)CN3C(c3nccs3)=N[C@H]2c2ccc(F)cc2Cl)o1` [Example 18], for which the CC50 (as a rule, the concentration at which the toxic effect on the cells reaches its halfway point) at 3 days in data set [1] (class symbols) was greater than 25 µM. The molecule also came in with an EC50 in the data set on HBV of less than 0.1 µM.
Molecule `Cn1ccc(C2=C3CC(NS(=O)(=O)C4CC4)CN3C(c3nccs3)=N[C@H]2c2ccc(F)cc2Cl)n1` (some centres unmarked) [Example 2] yielded a CC50 at 3 days in data set [1] (class symbols) greater than 25 µM. In the data set on HBV, the EC50 was less than 0.1 µM.
As to `[2H]C([2H])([2H])n1ccc(C2=C3C[C@H](NS(=O)(=O)C4CC4)CN3C(c3nccs3)=N[C@H]2c2ccc(F)cc2Cl)n1` [Example 17], in data set [1] (class symbols), the CC50 at 3 days was greater than 25 µM. The molecule further returned an EC50 with HBV of less than 0.1 µM.
For `Cn1ccc(C2=C3C[C@H](NS(=O)(=O)C4CCC4)CN3C(c3nccs3)=N[C@H]2c2ccc(F)cc2Cl)n1` [Example 11], the EC50 in the data set on HBV was less than 0.1 µM.
In turn, `Cn1ccc(C2=C3C[C@H](NS(=O)(=O)C4(C)CC4)CN3C(c3nccs3)=N[C@H]2c2ccc(F)cc2Cl)n1` [Example 10] registered an EC50 in the data set with HBV of less than 0.1 µM.
Turning to `O=S(=O)(N[C@H]1CC2=C(c3ccccn3)[C@H](c3ccc(F)cc3Cl)N=C(c3nccs3)N2C1)C1CC1` [Example 23], in the data set on HBV, the 50% effective concentration (EC50) lay in the range of 0.1 to 1 µM.
As to `CCn1ccc(C2=C3C[C@H](NS(=O)(=O)C4CC4)CN3C(c3nccs3)=N[C@H]2c2ccc(F)cc2Cl)n1` [Example 22], in data set [1] (numeric bound), the CC50 at 3 days was greater than 6 µM. This molecule showed an EC50 in the data set with HBV of less than 0.1 µM.
The molecule `CC(C)S(=O)(=O)N[C@H]1CC2=C(c3ccn(C)n3)[C@H](c3ccc(F)cc3Cl)N=C(c3nccs3)N2C1` [Example 8] yielded an EC50 with HBV of less than 0.1 µM.
On the same count and under the same terms, in the case of `Cn1ccc(C2=C3C[C@H](NS(=O)(=O)C4CC4)CN3C(c3nccs3)=N[C@H]2c2ccc(F)cc2Cl)n1` [Example 3] it was less than 0.1 µM; in that of `CCS(=O)(=O)N[C@H]1CC2=C(c3ccn(C)n3)[C@H](c3ccc(F)cc3Cl)N=C(c3nccs3)N2C1` [Example 7], less than 0.1 µM.
Consider `Cn1ccc(C2=C3C[C@H](NS(=O)(=O)C4CCCCC4)CN3C(c3nccs3)=N[C@H]2c2ccc(F)cc2Cl)n1` [Example 13], for which the EC50 in the data set on HBV was less than 0.1 µM.
For `Cc1coc(C2=C3C[C@H](NS(=O)(=O)C4CC4)CN3C(c3nccs3)=N[C@H]2c2ccc(F)cc2Cl)n1` [Example 21], in the data set with HBV, the EC50 is less than 0.1 µM.
`Cn1ccc(C2=C3CC(NC(=O)OC(C)(C)C)CN3C(c3nccs3)=N[C@H]2c2ccc(F)cc2Cl)n1` (some centres unmarked) [Example 1] registered a CC50 at 3 days in data set [1] (class symbols) of less than 10 µM. Further, in the data set on HBV, the EC50 is less than 0.1 µM.
Molecule `Cn1ccc(C2=C3C[C@H](NS(=O)(=O)C4CC4)CN3C(c3nccs3)=NC2(C)c2ccc(F)cc2)n1` (some centres unmarked) [Example 4] displayed a concentration for a half-maximal effect (EC50) in the data set on HBV of less than 0.1 µM.
For the molecule `Cn1ccc(C2=C3C[C@H](NS(=O)(=O)C4CC4)CN3C(c3nccs3)=N[C@@]2(C)c2ccc(F)c(F)c2)n1` [Example 16], in the data set with HBV, the EC50 is less than 0.1 µM.
The same measure, in the same setting: in the case of `Cn1ccc(C2=C3C[C@H](NS(=O)(=O)Cc4ccccc4)CN3C(c3nccs3)=N[C@H]2c2ccc(F)cc2Cl)n1` [Example 9] it was less than 0.1 µM.
In the data set with HBV, `Cn1ccc(C2=C3C[C@H](NS(=O)(=O)C4CCCC4)CN3C(c3nccs3)=N[C@H]2c2ccc(F)cc2Cl)n1` [Example 12] returned an EC50 of less than 0.1 µM.
In data set [1] (class symbols), `Cn1ccc(C2=C3C[C@H](NS(N)(=O)=O)CN3C(c3nccs3)=N[C@H]2c2ccc(F)cc2Cl)n1` [Example 20] yielded a CC50 at 3 days greater than 25 µM. The same molecule yielded a 50% effective concentration (EC50) in the data set on HBV of less than 0.1 µM.
Consider `Cn1ccc(C2=C3C[C@H](NS(C)(=O)=O)CN3C(c3nccs3)=N[C@H]2c2ccc(F)cc2Cl)n1` [Example 6], for which the EC50 with HBV was less than 0.1 µM.
